Legend:
[1] = molecular target: T1, glycine transporter subtype 1 (GlyT1) (Sus scrofa, UniProt A0A287AJD7); test: PET imaging with Compound A in pig brain; assay type: in vivo
T1 construct: from tissue; host or cells: brain of living anaesthetised pig (Yorkshire/Danish Landrace), in vivo PET
Protocol: (§1) The animals (pig, Yorkshire/Danish Landrace (˜40 Kg; n=2) were housed singly in thermostatically controlled (20° C.) and naturally illuminated stalls. They were scanned under terminal anaesthesia (ketamine induced isoflurane anaesthesia) on different days. The left femoral artery and vein of each animal were surgically cannulated using catheters (Avanti® size 4F-7F). Blood samples were collected from the femoral artery and the radiolabelled and non-labelled agents were injected into the femoral vein. Animals were placed supine in a Siemens ECAT EXACT HR tomograph, with the head immobilised in a custom-made holding device. During the study, blood pH, pCO2 and pO2 levels were monitored and maintained within the normal physiological range. In addition, BP and heart rate were recorded throughout the study. Compound A was administered intravenously into the femoral vein as a 1 minute bolus injection. PET scanning and arterial blood sampling was commenced upon start of the radioligand administration.
(§2) The PET data were analysed by using tracer kinetic modeling techniques to derive estimates of the tissue delivery (K1) and partition coefficient (PET volume of distribution—Vd). An input function representing the concentration of unchanged radiotracer in plasma was generated using discrete measures of the total plasma radioactivity and HPLC measures determining the parent radiotracer fraction. A generic tracer kinetic model (DEPICT) which estimates the tissues impulse response function was fitted to each of the individual tissue time activity curves to derive the appropriate parameters for each region (K1,Vd) (R. N. Gunn, S. R. Gunn, V. J. Cunningham. Cereb Blood Flow Metab. 2001, 21(6), 635-52; R. N. Gunn, S. R. Gunn, F. E. Turkheimer, J. A. Aston, V. J. Cunningham. J Cereb Blood Flow Metab. 2002, 22(12), 1425-39).

[2] = molecular target: T1, glycine transporter subtype 1 (GlyT1); test: PET imaging with pharmacological challenges (blocking of Compound A uptake by a selective GlyT1 inhibitor); assay type: in vivo; settings: pig
Protocol: as §1
In a first study, two sequential high specific activity iv radioligand Compound A administrations were performed in same animal on the same day.
as §2

T1 sequence (A0A287AJD7 1-654): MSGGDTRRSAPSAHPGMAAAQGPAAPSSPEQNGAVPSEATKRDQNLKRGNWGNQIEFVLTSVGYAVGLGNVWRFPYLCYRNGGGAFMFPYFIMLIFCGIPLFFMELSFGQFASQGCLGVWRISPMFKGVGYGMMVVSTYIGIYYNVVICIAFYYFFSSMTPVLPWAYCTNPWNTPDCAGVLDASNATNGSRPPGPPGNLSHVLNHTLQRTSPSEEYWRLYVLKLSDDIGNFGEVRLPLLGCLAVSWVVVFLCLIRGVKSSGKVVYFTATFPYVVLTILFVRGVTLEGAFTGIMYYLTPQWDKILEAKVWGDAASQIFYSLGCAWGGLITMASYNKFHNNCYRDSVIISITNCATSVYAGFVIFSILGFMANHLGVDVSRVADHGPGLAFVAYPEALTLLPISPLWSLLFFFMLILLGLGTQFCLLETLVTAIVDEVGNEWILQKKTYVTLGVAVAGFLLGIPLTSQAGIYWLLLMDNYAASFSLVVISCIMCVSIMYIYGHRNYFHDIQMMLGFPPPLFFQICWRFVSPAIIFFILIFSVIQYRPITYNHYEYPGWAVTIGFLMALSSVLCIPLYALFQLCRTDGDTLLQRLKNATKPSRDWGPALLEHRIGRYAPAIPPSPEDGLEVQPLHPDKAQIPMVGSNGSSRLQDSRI

time of peak brain uptake of radioactivity after administration ([1]; pig brain, iv, PET) [min] | brain entry of radiotracer ([1]; pig, iv 1 minute bolus, PET 0 to 90 min) | Extraction fraction (K1) ([1]; pig, stable across brain regions, tracer kinetic model (DEPICT)) [min⁻¹] | GlyT1 saturation (occupancy) ([2]; high dose 0.5 mg/kg iv) | ED50 ([2]; increasing iv doses, PET, read-out: intravenous ED50 (change in Compound A derived Vd)) [mg/kg] | effect of pretreatment on K1 of Compound A ([2]; iv pretreatment) | Structure (SMILES) | regional brain distribution ([1]; pig brain, PET, compared with the known distribution of GlyT1) | effect on Compound A uptake in the brain ([2]; escalating iv doses 0.001, 0.01 and 0.1 mg/kg, 5 min prior to Compound A) | effect on specific uptake of radiotracer Compound A ([2]; high iv dose 0.5 mg/kg, 5 minutes prior to Compound A)
25 | readily enters the pig brain | 0.06 |  |  |  | Cc1cccc(C)c1C(=O)NC(c1ccccc1)C1(N(C)[11CH3])CCCC1 (stereo not drawn) [Compound A, [^11C—N-methyl]-N-[[1-(dimethylamino)cyclopentyl](phenyl)methyl]-2,6-dimethylbenzamide] | higher accumulation in mid-brain, thalamus and cerebellum compared to cortical regions |  | 
 |  |  | near complete GlyT1 saturation | 0.0225 | not altered | CN1CCCC[C@H]1[C@@H](NC(=O)c1cccc(C(F)(F)F)c1Cl)c1ccccc1 [2-chloro-N—[(S)-[(2S)-1-methyl-2-piperidinyl](phenyl)methyl]-3-(trifluoromethyl)benzamide] |  | dose-dependent decrease of compound A uptake in the brain | the specific uptake of radiotracer was blocked

From patent US20090175788A1, “RADIOLABELLED LIGAND FOR THE GLYCINE 1 TRANSPORTER” (priority 2006, published 2009)
